According to patent EP4810038A1, “METHOD FOR TREATING ALK-POSITIVE OR ROS1-POSITIVE NON-SMALL CELL LUNG CANCER” (Shenzhen TargetRx Co., Ltd., priority 2023, dated 2025):

Experiments:
[1] = system: Ba/F3 (SLC34A2-ROS1 G2032R) cell line; test: Anti-tumor effect in subcutaneous transplanted Ba/F3 (SLC34A2-ROS1 G2032R) model; format: in vivo, NOD-SCID mice; conditions: 100 mg/kg p.o. once daily; 21st day after administration
Source text: Housing environment: SPF grade.
Environmental conditions of the housing room of the laboratory animals: All the laboratory animals were housed in individually ventilated cages with constant temperature and constant humidity. […] The animals were continuously provided with cobalt-60 irradiated complete pelleted mouse feed with unlimited free access. The animals drank tap water (used after being autoclaved), which was provided continuously from water bottles, allowing for free access. The cages for raising the mice were polysulfone mice cages, which were autoclaved before use, and measured 325 mm × 210 mm × 180 mm. The bedding was autoclaved corn cobs. Each cage contained 5 animals. The cage cards were marked with the IACUC approval number, experiment number, start time of the experiment, project leader, experimenters, source of the animals, group, and animal number. The laboratory animals were marked with ear tags or ear labels.
The Ba/F3 (SLC34A2-ROS1 G2032R) cells in the exponential growth phase were collected, resuspended in PBS to a suitable concentration, and then subcutaneously inoculated into nude mice for tumor formation.
Assay method: Female NOD/SCID mice were subcutaneously inoculated with 2×10^6 Ba/F3 (SLC34A2-ROS1 G2032R) cells on the right side to establish a subcutaneous tumor transplantation model. […] The mice were administered orally via gavage once daily. The efficacy was evaluated based on the relative tumor growth inhibition rate (TGI), and the safety was evaluated based on the changes in the body weight and mortality of the animals.
All the procedures, including drug administration, tumor measurement, weight measurement, etc., were performed in a biosafety cabinet or on a clean bench.
The relative tumor growth rate (T/C%) was the percentage value of the relative tumor volume between a treatment group and the control group at a certain time point, or the percentage value of the tumor weight between a treatment group and the control group. The calculation formula was: T/C% = TRTV / CRTV × 100% (TRTV: the average RTV of the treatment group; CRTV: the average RTV of the solvent control group; RTV = Vt / V0, wherein V0 is the tumor volume of the animal at the time of grouping, and Vt is the tumor volume of the animal after treatment); or T/C% = TTW / CTW × 100% (TTW: the average tumor weight at the end of the assay in the treatment group; CTW: the average tumor weight at the end of the assay in the solvent control group).
Statistical analysis: To compare the tumor volume on a given day across the different treatment groups, we first used the Bartlett's test to verify the assumption of homogeneity of variance among all the groups. When the p-value of the Bartlett's test was not less than 0.05, one-way ANOVA was used to test whether the means of all the groups were equal. If the p-value of the one-way ANOVA was less than 0.05, we would use the Tukey's HSD test for the pairwise comparisons between all the groups, or use the Dunnett's test for a pairwise comparison between each treatment group and the control group. When the p-value of the Bartlett's test was less than 0.05, the Kruskal-Wallis test was used to test whether the medians of all the groups were equal. […]

[2] = 100 mg of lorlatinib, GM (%CV), cited from earlier work

## C[C@@H](Oc1cc(-c2cnn(C3CCNCC3)c2)cnc1N)c1c(Cl)ccc(F)c1Cl [crizotinib, reference compound]
[1]
  average tumor volume: 1651.66 mm^3

## C[C@H]1Oc2cc(cnc2N)-c2c(nn(C)c2C#N)CN(C)C(=O)c2ccc(F)cc21 [lorlatinib]
[2]; Multiple administrations
  AR: 0.718(55)[11]
  AUC0-τ: 5946(46)[11] h*ng/ mL
  Cmax, SS: 644.8(32)[11] ng/mL
[2]; Single administration
  AUC(0-inf): 9590(11)[7] h*ng/ mL
  Cmax: 907.2(24) [7] ng/mL
  T1/2: 20.0(22)[7] hour
